Laboratory results taken from the NIST ThermoML archive (doi:10.1021/acs.jced.8b00854).

Key:
[1] = xn = mol fraction of the nth substance listed; conditions: 100 kPa, Liquid, Vibrating tube method
[2] = refractive index (Na D-line) (dimensionless); xn = mol fraction of the nth substance listed; conditions: 100 kPa, Liquid, Standard Abbe refractometry

CCCCCCn1cc[n+](C)c1.F[B-](F)(F)F [1-hexyl-3-methylimidazolium tetrafluoroborate] + O
Conditions | mass density, [1] [kg/m3] | refractive index, [2]
293.15 K, x1 = 0.3006 | 1117.21 | 1.415
293.15 K, x1 = 0.4005 | 1125.26 | 1.418
293.15 K, x1 = 0.4999 | 1132.22 | 1.4195
293.15 K, x1 = 0.6008 | 1136.97 | 1.422
293.15 K, x1 = 0.7004 | 1140.58 | 1.4245
293.15 K, x1 = 0.7996 | 1143.29 | 1.425
293.15 K, x1 = 0.8997 | 1145.34 | 1.427
303.15 K, x1 = 0.3006 | 1109.91 | 1.414
303.15 K, x1 = 0.4005 | 1117.8 | 1.415
303.15 K, x1 = 0.4999 | 1125.06 | 1.417
303.15 K, x1 = 0.6008 | 1129.88 | 1.42
303.15 K, x1 = 0.7004 | 1133.55 | 1.422
303.15 K, x1 = 0.7996 | 1136.29 | 1.4235
303.15 K, x1 = 0.8997 | 1138.36 | 1.425
313.15 K, x1 = 0.3006 | 1102.56 | 1.409
313.15 K, x1 = 0.4005 | 1110.53 | 1.412
313.15 K, x1 = 0.4999 | 1117.91 | 1.4165
313.15 K, x1 = 0.6008 | 1122.81 | 1.419
313.15 K, x1 = 0.7004 | 1126.54 | 1.421
313.15 K, x1 = 0.7996 | 1129.34 | 1.4215
313.15 K, x1 = 0.8997 | 1131.42 | 1.423
323.15 K, x1 = 0.3006 | 1095.15 | 1.408
323.15 K, x1 = 0.4005 | 1103.23 | 1.4115
323.15 K, x1 = 0.4999 | 1110.76 | 1.415
323.15 K, x1 = 0.6008 | 1115.77 | 1.417
323.15 K, x1 = 0.7004 | 1119.58 | 1.419
323.15 K, x1 = 0.7996 | 1122.43 | 1.42
323.15 K, x1 = 0.8997 | 1124.55 | 1.421
333.15 K, x1 = 0.3006 | 1087.71 | 1.4075
333.15 K, x1 = 0.4005 | 1095.9 | 1.4115
333.15 K, x1 = 0.4999 | 1103.62 | 1.415
333.15 K, x1 = 0.6008 | 1108.78 | 1.4155
333.15 K, x1 = 0.7004 | 1112.66 | 1.417
333.15 K, x1 = 0.7996 | 1115.58 | 1.418
333.15 K, x1 = 0.8997 | 1117.73 | 1.419
343.15 K, x1 = 0.3006 | 1080.23 | 1.4075
343.15 K, x1 = 0.4005 | 1088.51 | 1.4095
343.15 K, x1 = 0.4999 | 1096.51 | 1.4125
343.15 K, x1 = 0.6008 | 1101.81 | 1.414
343.15 K, x1 = 0.7004 | 1105.77 | 1.4145
343.15 K, x1 = 0.7996 | 1108.76 | 1.416
343.15 K, x1 = 0.8997 | 1110.94 | 1.4165

CCn1cc[n+](C)c1.F[B-](F)(F)F [1-ethyl-3-methylimidazolium tetrafluoroborate] + O
Conditions | mass density, [1] [kg/m3] | refractive index, [2]
293.15 K, x1 = 0.1001 | 1135.98 | 1.369
293.15 K, x1 = 0.2002 | 1190.68 | 1.3825
293.15 K, x1 = 0.3004 | 1219.59 | 1.3915
293.15 K, x1 = 0.4003 | 1237.8 | 1.398
293.15 K, x1 = 0.5009 | 1251.03 | 1.401
293.15 K, x1 = 0.5999 | 1261.19 | 1.4045
293.15 K, x1 = 0.7002 | 1269.24 | 1.4065
293.15 K, x1 = 0.8004 | 1275.23 | 1.4085
293.15 K, x1 = 0.9011 | 1279.57 | 1.4105
303.15 K, x1 = 0.1001 | 1129.7 | 1.367
303.15 K, x1 = 0.2002 | 1183.7 | 1.381
303.15 K, x1 = 0.3004 | 1212.47 | 1.3895
303.15 K, x1 = 0.4003 | 1230.6 | 1.3955
303.15 K, x1 = 0.5009 | 1243.72 | 1.3995
303.15 K, x1 = 0.5999 | 1253.76 | 1.402
303.15 K, x1 = 0.7002 | 1261.71 | 1.4045
303.15 K, x1 = 0.8004 | 1267.64 | 1.407
303.15 K, x1 = 0.9011 | 1271.96 | 1.408
313.15 K, x1 = 0.1001 | 1123.34 | 1.3655
313.15 K, x1 = 0.2002 | 1176.44 | 1.379
313.15 K, x1 = 0.3004 | 1204.95 | 1.3875
313.15 K, x1 = 0.4003 | 1223.03 | 1.3935
313.15 K, x1 = 0.5009 | 1236.17 | 1.3975
313.15 K, x1 = 0.5999 | 1246.23 | 1.4005
313.15 K, x1 = 0.7002 | 1254.19 | 1.4025
313.15 K, x1 = 0.8004 | 1260.1 | 1.405
313.15 K, x1 = 0.9011 | 1264.39 | 1.4065
323.15 K, x1 = 0.1001 | 1116.34 | 1.364
323.15 K, x1 = 0.2002 | 1169.01 | 1.377
323.15 K, x1 = 0.3004 | 1197.41 | 1.3875
323.15 K, x1 = 0.4003 | 1215.41 | 1.392
323.15 K, x1 = 0.5009 | 1228.52 | 1.3965
323.15 K, x1 = 0.5999 | 1238.61 | 1.399
323.15 K, x1 = 0.7002 | 1246.64 | 1.401
323.15 K, x1 = 0.8004 | 1252.61 | 1.4025
323.15 K, x1 = 0.9011 | 1256.9 | 1.4045
333.15 K, x1 = 0.1001 | 1110.02 | 1.362
333.15 K, x1 = 0.2002 | 1161.89 | 1.376
333.15 K, x1 = 0.3004 | 1190.09 | 1.385
333.15 K, x1 = 0.4003 | 1208.03 | 1.391
333.15 K, x1 = 0.5009 | 1221.09 | 1.395
333.15 K, x1 = 0.5999 | 1231.14 | 1.398
333.15 K, x1 = 0.7002 | 1239.11 | 1.399
333.15 K, x1 = 0.8004 | 1245.05 | 1.401
333.15 K, x1 = 0.9011 | 1249.32 | 1.4025
343.15 K, x1 = 0.1001 | 1101.5 | 1.3615
343.15 K, x1 = 0.2002 | 1153.47 | 1.376
343.15 K, x1 = 0.3004 | 1181.98 | 1.385
343.15 K, x1 = 0.4003 | 1200.26 | 1.39
343.15 K, x1 = 0.5009 | 1213.58 | 1.3935
343.15 K, x1 = 0.5999 | 1223.61 | 1.397
343.15 K, x1 = 0.7002 | 1231.58 | 1.3985
343.15 K, x1 = 0.8004 | 1237.51 | 1.3995
343.15 K, x1 = 0.9011 | 1241.76 | 1.401
